# Results: patent US20250051323A1 (RICHTER GEDEON NYRT., priority 2021, published 2025)
# pKi: −log10 of the molar value. Where a name gives a salt, the structure may show the parent alone. Read-outs that look alike come from different tables or passages of the source.
# Experiments:
# [1] = biological target: T1, human recombinant GABAA α5β3γ2 receptor (Homo sapiens (Human), UniProt P18507+P31644); assay: Binding assay, [3H]Ro151788 displacement on HEK cell membranes; conditions: [3H]Ro151788 0.5 nM, 60 minutes at 4° C., Cheng-Prusoff; read-out: hGABAA α5 Ki
# T1 sequence (P31644 32-462): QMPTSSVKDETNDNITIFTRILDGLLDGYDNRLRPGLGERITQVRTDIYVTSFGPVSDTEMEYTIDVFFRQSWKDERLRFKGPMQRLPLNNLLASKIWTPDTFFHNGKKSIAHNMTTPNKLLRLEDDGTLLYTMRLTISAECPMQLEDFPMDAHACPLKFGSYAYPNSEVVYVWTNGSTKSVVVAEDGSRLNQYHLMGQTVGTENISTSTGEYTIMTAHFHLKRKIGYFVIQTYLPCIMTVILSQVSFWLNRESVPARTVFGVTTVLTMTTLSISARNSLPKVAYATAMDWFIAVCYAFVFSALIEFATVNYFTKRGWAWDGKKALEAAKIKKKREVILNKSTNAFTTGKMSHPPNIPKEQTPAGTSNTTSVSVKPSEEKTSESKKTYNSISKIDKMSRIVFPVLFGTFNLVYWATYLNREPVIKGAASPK
# T1 sequence (P28472 26-473 partner): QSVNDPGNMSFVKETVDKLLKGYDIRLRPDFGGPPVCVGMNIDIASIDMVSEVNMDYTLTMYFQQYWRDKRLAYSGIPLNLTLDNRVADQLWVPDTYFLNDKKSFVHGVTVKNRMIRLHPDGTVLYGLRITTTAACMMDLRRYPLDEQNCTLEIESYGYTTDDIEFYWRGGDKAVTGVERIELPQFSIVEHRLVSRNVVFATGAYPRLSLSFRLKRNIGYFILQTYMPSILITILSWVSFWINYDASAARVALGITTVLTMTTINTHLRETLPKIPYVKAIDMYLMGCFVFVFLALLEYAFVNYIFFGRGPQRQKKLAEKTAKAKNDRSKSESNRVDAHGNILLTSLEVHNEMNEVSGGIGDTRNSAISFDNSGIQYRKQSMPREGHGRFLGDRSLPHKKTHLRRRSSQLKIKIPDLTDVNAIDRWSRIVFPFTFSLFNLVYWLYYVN
# T1 sequence (P18507 40-475): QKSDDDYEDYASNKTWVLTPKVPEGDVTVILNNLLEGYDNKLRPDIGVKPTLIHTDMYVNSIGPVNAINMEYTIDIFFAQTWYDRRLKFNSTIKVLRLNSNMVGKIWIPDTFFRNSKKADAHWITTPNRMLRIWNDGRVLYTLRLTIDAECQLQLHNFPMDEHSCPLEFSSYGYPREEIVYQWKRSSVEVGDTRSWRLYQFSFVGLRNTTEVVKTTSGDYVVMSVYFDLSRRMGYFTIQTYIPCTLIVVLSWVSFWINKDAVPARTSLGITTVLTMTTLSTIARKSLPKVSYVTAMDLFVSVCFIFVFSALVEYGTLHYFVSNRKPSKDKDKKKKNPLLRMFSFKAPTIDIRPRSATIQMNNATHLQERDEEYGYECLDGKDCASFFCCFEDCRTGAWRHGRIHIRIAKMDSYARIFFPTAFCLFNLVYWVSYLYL
# Method: The GABAA α5β3γ2 protein used for the receptor binding assay was derived from membranes produced from HEK cells (Millipore CYL3073) expressing the human recombinant GABAA α5β3γ2 receptor. Cells were stored and cultured in-house according to the instructions provided by the vendor (Millipore). Cell pellet was homogenized in 10 times modified Krebs Henseleit buffer (membrane preparation buffer): 20 mM Tris, 120 mM NaCl, 100 mM KCl, 25 mM CaCl2 and 25 mM MgCl2 pH=7.4 at 4° C. using Ultra Turrax (Janke&Kunkel) maximal speed for 15 seconds. The homogenate was centrifuged at 40,000 g for 30 minutes at 4° C. Supernatant was discarded and the resulting pellet was washed in membrane preparation buffer. Pellet was resuspended in membrane preparation buffer and aliquots of 1.4 mL ampules were stored at −70° C. until use.
# Receptor binding assays were performed in 96-well format in deep-well plates. For each 96-well plate one ampule of membrane homogenate was thawed and diluted in binding buffer (50 mM Tris pH=7.4, 100 mM KCl) and 200 μL was dispensed into each well. Radioligand [^3H]Ro151788 (Perkin Elmer: NET757250UC) was prepared in binding buffer and added to each well in 50 μL volume to give final concentration of 0.5 nM. Test compounds in suitable concentration(s) were added in additional 50 μL. The final assay volume was 300 μL. Incubation was carried out for 60 minutes at 4° C. For non-specific binding 10 μM unlabeled diazepam was used. […] The plate was dried at 40° C. for an hour and 40 μL Microscint (Perkin Elmer) scintillation cocktail was added to each well. The plate was read in Microbeta (Perkin Elmer).
# The specific radioligand binding (SB) was defined as the difference between total binding (Tot) and the non-specific binding (NSB). Results are expressed as a percent inhibition of specific binding obtained in the presence of compound of interest.
# For IC50 and Ki determination a minimum of six drug concentrations in triplicate were used. […] Ki values (i.e., inhibition constants) were calculated using the Cheng-Prusoff equation Ki=IC5O/[1+(L/KD)], where [L] is the radioligand concentration and KD the affinity of the labelled ligand for receptor. KD was determined from the Saturation analyses.
# [2] = biological target: T1, human recombinant GABAA α5β3γ2 receptor; assay: Functional assay, QPatch automated whole-cell patch clamp, modulation of GABA-evoked current; type: cell-based; conditions: read-out: hGABAA α5 efficacy (percentage modulation of GABA-evoked peak current)
# Method: Human HEK293 cell lines expressing GABAAα5β3γ2 receptors were used in functional assays using the QPatch automated patch clamp system.
# HEK293 cell lines stably expressing human recombinant GABAA α5β3γ2 receptor subunits (Millipore, CYL3053) were cultured in DMEM supplemented with 10% FBS (Gibco), passed two times per week and plated on Petri dishes previously coated with poly-d-lysine.
# Automated whole-cell patch clamp recordings were made from cells 2-4 days after plating.
# Inward currents were evoked at a holding potential of −80 mV by 3-s-long applications of the control agonist GABA at 1 μM at 2-4-min intervals first in concentration-matched DMSO (0.1 or 0.3%) control solution for five times, then in the presence of the test compound for four times, finally in control solution again for three times (wash-out). At the end of the experiment 100 μM GABA was applied to saturate the GABA-response and to assess the efficacy of the control GABA application. Current signals were low-pass filtered at 100 Hz and recorded at a sampling rate of 1 kHz.
# The percentage modulation was calculated from the comparison of GABA-evoked peak current amplitudes in the presence and absence of the test compound.
# [3] = test compound 1 μM, GABA 1 μM, holding potential −80 mV
SMILES,pKi [1],"activation at 1 µM [2, 3]",activation at 1 µM [2]
"Cc1ccc(-n2nnc(C)c2COc2cc3c(cn2)CN(C2CCOC2)CC3)cn1 (racemic) [Example 29, 6-{[4-methyl-1-(6-methylpyridin-3-yl)-1H-1,2,3-triazol-5-yl]methoxy}-2-(oxolan-3-yl)-1,2,3,4-tetrahydro-2,7-naphthyridine]",7.53,102%,–
"Cc1ccc(-n2nnc(C)c2COc2cc3c(cn2)CN([C@@H]2CCOC2)CC3)cn1 (single isomer, unassigned) [Example 38, 6-{[4-methyl-1-(6-methylpyridin-3-yl)-1H-1,2,3-triazol-5-yl]methoxy}-2-[(3S)-oxolan-3-yl]-1,2,3,4-tetrahydro-2,7-naphthyridine or enantiomer, tartarate salt]",7.68,–,–
"Cc1ccc(-n2nnc(C)c2COc2cc3c(cn2)CN([C@H]2CCOC2)CC3)cn1 (single isomer, unassigned) [Example 39, 6-{[4-methyl-1-(6-methylpyridin-3-yl)-1H-1,2,3-triazol-5-yl]methoxy}-2-[(3R)-oxolan-3-yl]-1,2,3,4-tetrahydro-2,7-naphthyridine or enantiomer, tartarate salt]",7.67,–,–
"Cc1ccc(-c2noc(C)c2COc2cc3c(cn2)CNCC3)cn1 [Example 1, 6-{[5-methyl-3-(6-methylpyridin-3-yl)-1,2-oxazol-4-yl]methoxy}-1,2,3,4-tetrahydro-2,7-naphthyridine trifluoroacetic acid salt]",8.41,–,155%
"Cc1onc(-c2ccc(C(F)(F)F)nc2)c1COc1cc2c(cn1)CNCC2 [Example 2, 6-({5-methyl-3-[6-(trifluoromethyl)pyridin-3-yl]-1,2-oxazol-4-yl}methoxy)-1,2,3,4-tetrahydro-2,7-naphthyridine trifluoroacetic acid salt]",7.43,–,100%
"Cc1ccc(-c2noc(C)c2COc2cc3c(cn2)CN(C)CC3)cn1 [Example 3, 2-methyl-6-{[5-methyl-3-(6-methylpyridin-3-yl)-1,2-oxazol-4-yl]methoxy}-1,2,3,4-tetrahydro-2,7-naphthyridine]",8.38,–,–
"Cc1ccc(-c2noc(C)c2COc2cc3c(cn2)CN(CC2CCC2)CC3)cn1 [Example 5, 2-(cyclobutylmethyl)-6-{[5-methyl-3-(6-methylpyridin-3-yl)-1,2-oxazol-4-yl]methoxy}-1,2,3,4-tetrahydro-2,7-naphthyridine]",8.13,–,–
"Cc1ccc(-c2noc(C)c2COc2cc3c(cn2)CN(C2CCCC2)CC3)cn1 [Example 6, 2-cyclopentyl-6-{[5-methyl-3-(6-methylpyridin-3-yl)-1,2-oxazol-4-yl]methoxy}-1,2,3,4-tetrahydro-2,7-naphthyridine]",8.08,–,–
"Cc1onc(-c2ccc(C(F)(F)F)nc2)c1COc1cc2c(cn1)CN(C1CCOCC1)CC2 [Example 7, 6-({5-methyl-3-[6-(trifluoromethyl)pyridin-3-yl]-1,2-oxazol-4-yl}methoxy)-2-(oxan-4-yl)-1,2,3,4-tetrahydro-2,7-naphthyridine]",7.53,125%,–
"Cc1onc(-c2ccc(C(F)(F)F)nc2)c1COc1cc2c(cn1)CN(C1CCOC1)CC2 (stereo not drawn) [Example 8, 6-({5-methyl-3-[6-(trifluoromethyl)pyridin-3-yl]-1,2-oxazol-4-yl}methoxy)-2-(oxolan-3-yl)-1,2,3,4-tetrahydro-2,7-naphthyridine]",7.95,133%,–
"Cc1ccc(-c2noc(C)c2COc2cc3c(cn2)CN(C2CCOC2)CC3)cn1 (stereo not drawn) [Example 9, 6-{[5-methyl-3-(6-methylpyridin-3-yl)-1,2-oxazol-4-yl]methoxy}-2-(oxolan-3-yl)-1,2,3,4-tetrahydro-2,7-naphthyridine]",8.31,106%,–
"Cc1ccc(-c2noc(C)c2COc2cc3c(cn2)CN(C2COC2)CC3)cn1 [Example 10, 6-{[5-methyl-3-(6-methylpyridin-3-yl)-1,2-oxazol-4-yl]methoxy}-2-(oxetan-3-yl)-1,2,3,4-tetrahydro-2,7-naphthyridine]",8.35,131%,–
"Cc1onc(-c2ccc(C(F)(F)F)nc2)c1COc1cc2c(cn1)CN(C(C)CS(C)(=O)=O)CC2 (stereo not drawn) [Example 12, 2-(1-methanesulfonylpropan-2-yl)-6-({5-methyl-3-[6-(trifluoromethyl)pyridin-3-yl]-1,2-oxazol-4-yl}methoxy)-1,2,3,4-tetrahydro-2,7-naphthyridine]",7.55,–,–
Cc1onc(-c2ccc(C(F)(F)F)nc2)c1COc1cc2c(nn1)CN(C)CC2 [Example 17],7.75,–,–
"Cc1nnn(-c2ccc(C(F)F)nc2)c1COc1cc2c(cn1)CNCC2 [Example 23, 6-({1-[6-(difluoromethyl)pyridin-3-yl]-4-methyl-1H-1,2,3-triazol-5-yl}methoxy)-1,2,3,4-tetrahydro-2,7-naphthyridine]",8.14,–,–
"Cc1nnn(-c2ccc(C(F)(F)F)nc2)c1COc1cc2c(cn1)CN(C(C)C)CC2 [Example 26, 6-({4-methyl-1-[6-(trifluoromethyl)pyridin-3-yl]-1H-1,2,3-triazol-5-yl}methoxy)-2-(propan-2-yl)-1,2,3,4-tetrahydro-2,7-naphthyridine]",7.03,–,–
"Cc1nnn(-c2ccc(C(F)(F)F)nc2)c1COc1cc2c(cn1)CN(C)CC2 [Example 27, 2-methyl-6-({4-methyl-1-[6-(trifluoromethyl)pyridin-3-yl]-1H-1,2,3-triazol-5-yl}methoxy)-1,2,3,4-tetrahydro-2,7-naphthyridine]",7.20,–,–
"Cc1nnn(-c2ccc(C(F)F)nc2)c1COc1cc2c(cn1)CN(C(C)C)CC2 [Example 28, 6-({1-[6-(difluoromethyl)pyridin-3-yl]-4-methyl-1H-1,2,3-triazol-5-yl}methoxy)-2-(propan-2-yl)-1,2,3,4-tetrahydro-2,7-naphthyridine]",8.23,–,–
"Cc1nnn(-c2ccc(C(F)(F)F)nc2)c1COc1cc2c(cn1)CN(C1CCOCC1)CC2 [Example 35, 6-({4-methyl-1-[6-(trifluoromethyl)pyridin-3-yl]-1H-1,2,3-triazol-5-yl}methoxy)-2-(oxan-4-yl)-1,2,3,4-tetrahydro-2,7-naphthyridine]",7.05,–,–
"Cc1nnn(-c2ccc(C(F)(F)F)nc2)c1COc1cc2c(cn1)CN(c1cccnc1)CC2 [Example 37, 6-({4-methyl-1-[6-(trifluoromethyl)pyridin-3-yl]-1H-1,2,3-triazol-5-yl}methoxy)-2-(pyridin-3-yl)-1,2,3,4-tetrahydro-2,7-naphthyridine napadysilate salt]",–,53%,–
"COc1ccc(-n2nnc(C)c2COc2cc3c(cn2)CN(C2CCOCC2)CC3)cn1 [Example 40, 6-{[1-(6-methoxypyridin-3-yl)-4-methyl-1H-1,2,3-triazol-5-yl]methoxy}-2-(oxan-4-yl)-1,2,3,4-tetrahydro-2,7-naphthyridine heminapadisylate salt]",–,86%,–
"Cc1ccc(-n2nnc(C)c2COc2cc3c(cn2)CN(C2(C(C)C)COC2)CC3)cn1 [Example 42, 6-{[4-methyl-1-(6-methylpyridin-3-yl)-1H-1,2,3-triazol-5-yl]methoxyl}-2-[3-(propan-2-yl)oxetan-3-yl]-1,2,3,4-tetrahydro-2,7-naphthyridine napadisylate salt]",–,99%,–
"CCC1(N2CCc3cc(OCc4c(C)nnn4-c4ccc(C)nc4)ncc3C2)COC1 [Example 43, 2-(3-ethyloxetan-3-yl)-6-{[4-methyl-1-(6-methylpyridin-3-yl)-1H-1,2,3-triazol-5-yl]methoxy}-1,2,3,4-tetrahydro-2,7-naphthyridine napadisylate salt]",–,85%,–
